Active and inactive are the calls of the source. The calls are words filed in the database; no cut-off is given here.
Tested on: Plasmodium falciparum
Experiment: Antimalarial activity against chloroquine-sensitive Plasmodium falciparum 3D7 infected in human erythrocytes assessed as reduction in parasite growth incubated for 72 hrs by SYBR green dye fluorimetric assay
Type: functional, organism-based
Conditions: 3D7, Erythrocyte

Compound | IC50
O=C(NCc1cn(-c2ccccc2)nn1)c1cc2c([nH]c3ccccc32)c(-c2ccc(Cl)cc2Cl)n1 | 2040 nM
Cc1ccc(-c2nc(C(=O)NCc3cn(-c4ccccc4)nn3)cc3c2[nH]c2ccccc23)cc1 | 880 nM
O=C(NCc1cn(-c2cc(C(F)(F)F)cc(C(F)(F)F)c2)nn1)c1cc2c([nH]c3ccccc32)c(-c2ccc(Cl)cc2Cl)n1 | 2500 nM
O=C(NCc1cn(-c2ccc(F)cc2)nn1)c1cc2c([nH]c3ccccc32)c(-c2ccc(C(F)(F)F)cc2)n1 | 210 nM
Cc1ccc(-c2cn(-c3ccc(F)cc3)nn2)cc1 | 3670 nM
O=C(NCc1cn(-c2ccc(OC(F)(F)F)cc2)nn1)c1cc2c([nH]c3ccccc32)c(-c2ccc(Cl)cc2Cl)n1 | 1550 nM
O=C(NCc1cn(-c2ccc(F)cc2)nn1)c1cc2c([nH]c3ccccc32)c(-c2cccc(Cl)c2)n1 | 410 nM
O=C(NCc1cn(-c2ccc(F)cc2)nn1)c1cc2c([nH]c3ccccc32)c(-c2ccccc2)n1 | 1400 nM
O=C(NCc1cn(-c2ccccc2)nn1)c1cc2c([nH]c3ccccc32)c(-c2ccc(C(F)(F)F)cc2)n1 | 370 nM
COc1ccc(-c2nc(C(=O)NCc3cn(-c4ccc(F)cc4)nn3)cc3c2[nH]c2ccccc23)cc1 | 1910 nM
O=C(NCc1cn(-c2ccccc2)nn1)c1cc2c([nH]c3ccccc32)c(-c2ccccc2)n1 | 2920 nM

Tested on: Plasmodium falciparum
Experiment: Antimalarial activity against […] infected in human erythrocytes assessed as reduction in parasite growth incubated for 72 hrs by SYBR green dye fluorimetric assay
Type: functional, organism-based
Conditions: K1, Erythrocyte

Compound | IC50
Cc1ccc(-c2nc(C(=O)NCc3cn(-c4ccccc4)nn3)cc3c2[nH]c2ccccc23)cc1 | 320 nM
O=C(NCc1cn(-c2ccc(F)cc2)nn1)c1cc2c([nH]c3ccccc32)c(-c2ccc(C(F)(F)F)cc2)n1 | 610 nM
O=C(NCc1cn(-c2ccc(F)cc2)nn1)c1cc2c([nH]c3ccccc32)c(-c2cccc(Cl)c2)n1 | 660 nM
O=C(NCc1cn(-c2ccccc2)nn1)c1cc2c([nH]c3ccccc32)c(-c2ccc(C(F)(F)F)cc2)n1 | 750 nM

Tested on: not listed separately
Experiment: Cytotoxicity against human HepG2 cells
Type: toxicity, cell-based
Conditions: not given

Compound | CC50
COc1cc([C@@H]2c3cc4c(cc3[C@H](O)[C@H]3COC(=O)[C@H]23)OCO4)cc(OC)c1OC [PODOFILOX] | 8700 nM
O=C(NCc1cn(-c2ccccc2)nn1)c1cc2c([nH]c3ccccc32)c(-c2ccc(Cl)cc2Cl)n1 | 214000 nM
Cc1ccc(-c2nc(C(=O)NCc3cn(-c4ccccc4)nn3)cc3c2[nH]c2ccccc23)cc1 | 187000 nM
O=C(NCc1cn(-c2cc(C(F)(F)F)cc(C(F)(F)F)c2)nn1)c1cc2c([nH]c3ccccc32)c(-c2ccc(Cl)cc2Cl)n1 | 155000 nM
O=C(NCc1cn(-c2ccc(F)cc2)nn1)c1cc2c([nH]c3ccccc32)c(-c2ccc(C(F)(F)F)cc2)n1 | 71700 nM
Cc1ccc(-c2cn(-c3ccc(F)cc3)nn2)cc1 | 159000 nM
O=C(NCc1cn(-c2ccc(OC(F)(F)F)cc2)nn1)c1cc2c([nH]c3ccccc32)c(-c2ccc(Cl)cc2Cl)n1 | 187000 nM
O=C(NCc1cn(-c2ccc(F)cc2)nn1)c1cc2c([nH]c3ccccc32)c(-c2cccc(Cl)c2)n1 | 227000 nM
O=C(NCc1cn(-c2ccc(F)cc2)nn1)c1cc2c([nH]c3ccccc32)c(-c2ccccc2)n1 | 207000 nM
O=C(NCc1cn(-c2ccccc2)nn1)c1cc2c([nH]c3ccccc32)c(-c2ccc(C(F)(F)F)cc2)n1 | 159000 nM
COc1ccc(-c2nc(C(=O)NCc3cn(-c4ccc(F)cc4)nn3)cc3c2[nH]c2ccccc23)cc1 | 163000 nM
O=C(NCc1cn(-c2ccccc2)nn1)c1cc2c([nH]c3ccccc32)c(-c2ccccc2)n1 | 220000 nM

Tested on: Plasmodium falciparum
Experiment: Induction of morphological changes in asexual blood stage Plasmodium falciparum assessed as appearance of fragmentation at 1 uM incubated for 24 hrs by Geimsa-staining based light microscopic analysis
Type: functional, organism-based
Conditions: not given

Compound | Activity
Cc1ccc(-c2nc(C(=O)NCc3cn(-c4ccccc4)nn3)cc3c2[nH]c2ccccc23)cc1 | Active; Irreversible Structural Deformations Observed

Tested on: Plasmodium yoelii
Experiment: Antimalarial activity against Plasmodium yoelii N67 infected in female Swiss mouse model assessed as mean survival time at 10 mg/kg administered orally
Type: functional
Conditions: route po

Compound | MST
CCN(CC)CCCC(C)Nc1ccnc2cc(Cl)ccc12 (configuration not stated) [CHLOROQUINE] | 16 days

Tested on: not listed separately
Experiment: Selectivity index, ratio of CC50 for cytotoxicity against human HepG2 cells to IC50 for antimalarial activity against chloroquine-sensitive Plasmodium falciparum 3D7 infected in human erythrocytes assessed as reduction in parasite growth incubated for 72 hrs by SYBR green dye fluorimetric assay
Type: toxicity, cell-based
Conditions: read-out: Ratio CC50/IC50

Compound | selectivity ratio at 72 h
O=C(NCc1cn(-c2ccccc2)nn1)c1cc2c([nH]c3ccccc32)c(-c2ccc(Cl)cc2Cl)n1 | 105
Cc1ccc(-c2nc(C(=O)NCc3cn(-c4ccccc4)nn3)cc3c2[nH]c2ccccc23)cc1 | 213
O=C(NCc1cn(-c2cc(C(F)(F)F)cc(C(F)(F)F)c2)nn1)c1cc2c([nH]c3ccccc32)c(-c2ccc(Cl)cc2Cl)n1 | 120
O=C(NCc1cn(-c2ccc(F)cc2)nn1)c1cc2c([nH]c3ccccc32)c(-c2ccc(C(F)(F)F)cc2)n1 | 341
O=C(NCc1cn(-c2ccc(OC(F)(F)F)cc2)nn1)c1cc2c([nH]c3ccccc32)c(-c2ccc(Cl)cc2Cl)n1 | 121
O=C(NCc1cn(-c2ccc(F)cc2)nn1)c1cc2c([nH]c3ccccc32)c(-c2cccc(Cl)c2)n1 | 553
O=C(NCc1cn(-c2ccc(F)cc2)nn1)c1cc2c([nH]c3ccccc32)c(-c2ccccc2)n1 | 148
O=C(NCc1cn(-c2ccccc2)nn1)c1cc2c([nH]c3ccccc32)c(-c2ccc(C(F)(F)F)cc2)n1 | 430
COc1ccc(-c2nc(C(=O)NCc3cn(-c4ccc(F)cc4)nn3)cc3c2[nH]c2ccccc23)cc1 | 85.5
O=C(NCc1cn(-c2ccccc2)nn1)c1cc2c([nH]c3ccccc32)c(-c2ccccc2)n1 | 75.3

Tested on: Plasmodium yoelii
Experiment: Antimalarial activity against Plasmodium yoelii N67 infected in female Swiss mouse model assessed as suppression in parasitic growth at 20 mg/kg, po measured on day 4 relative to control
Type: functional
Conditions: not given

Compound | Activity
CCN(CC)CCCC(C)Nc1ccnc2cc(Cl)ccc12 (configuration not stated) [CHLOROQUINE] | 99%

Tested on: Plasmodium falciparum
Experiment: Induction of morphological changes in asexual blood stage Plasmodium falciparum assessed as appearance of schizonts at 1 uM incubated for 48 to 72 hrs by Geimsa-staining based light microscopic analysis
Type: functional, organism-based
Conditions: time 48-72 hrs

Compound | Activity
Cc1ccc(-c2nc(C(=O)NCc3cn(-c4ccccc4)nn3)cc3c2[nH]c2ccccc23)cc1 | inactive

Tested on: Plasmodium berghei
Experiment: Antimalarial activity against GFP-luciferase expressing liver stage Plasmodium berghei sporozoites infected in human HepG2 cells assessed as inhibition of parasitic growth by luminescence based analysis
Type: functional, organism-based
Conditions: not given

Compound | IC50
Cc1ccc(-c2nc(C(=O)NCc3cn(-c4ccccc4)nn3)cc3c2[nH]c2ccccc23)cc1 | 4810 nM
COc1cc(NC(C)CCCN)c2ncccc2c1 (configuration not stated) [PRIMAQUINE] | 2500 nM

Tested on: Plasmodium falciparum
Experiment: Antimalarial activity against […] infected in human erythrocytes assessed as inhibition of parasitic growth at 5 uM incubated for 72 hrs by SYBR green dye fluorimetric assay relative to control
Type: functional, K1, Erythrocyte
Set-up: scale not given: the % may be the effect or the level left
Conditions: not given

Compound | Activity
Cc1ccc(-c2nc(C(=O)NCc3cn(-c4ccccc4)nn3)cc3c2[nH]c2ccccc23)cc1 | 82.3%

Tested on: not listed separately
Experiment: Resistance index, ratio of IC50 for antimalarial activity against […] infected in human erythrocytes to IC50 for antimalarial activity against chloroquine-sensitive Plasmodium falciparum 3D7 infected in erythrocytes
Type: functional
Conditions: not given

Compound | Ratio IC50
Cc1ccc(-c2nc(C(=O)NCc3cn(-c4ccccc4)nn3)cc3c2[nH]c2ccccc23)cc1 | 0.36
O=C(NCc1cn(-c2ccc(F)cc2)nn1)c1cc2c([nH]c3ccccc32)c(-c2ccc(C(F)(F)F)cc2)n1 | 2.9
O=C(NCc1cn(-c2ccc(F)cc2)nn1)c1cc2c([nH]c3ccccc32)c(-c2cccc(Cl)c2)n1 | 1.61
O=C(NCc1cn(-c2ccccc2)nn1)c1cc2c([nH]c3ccccc32)c(-c2ccc(C(F)(F)F)cc2)n1 | 2.03

Tested on: Plasmodium yoelii
Experiment: Antimalarial activity against Plasmodium yoelii N67 infected in female Swiss mouse model assessed as suppression in parasitic growth at 20 mg/kg, po measured on day 7 relative to control
Type: functional
Conditions: not given

Compound | Activity
CCN(CC)CCCC(C)Nc1ccnc2cc(Cl)ccc12 (configuration not stated) [CHLOROQUINE] | 91%

Tested on: Plasmodium yoelii
Experiment: Antimalarial activity against Plasmodium yoelii N67 infected in female Swiss mouse model assessed as suppression in parasitic growth at 10 mg/kg, po measured on day 7 relative to control
Type: functional
Conditions: time 7 day

Compound | Activity
CCN(CC)CCCC(C)Nc1ccnc2cc(Cl)ccc12 (configuration not stated) [CHLOROQUINE] | 88%

Tested on: Plasmodium yoelii
Experiment: Antimalarial activity against Plasmodium yoelii N67 infected in female Swiss mouse model assessed as suppression in parasitic growth at 10 mg/kg, po measured on day 4 relative to control
Type: functional
Conditions: time 4 day

Compound | Activity
CCN(CC)CCCC(C)Nc1ccnc2cc(Cl)ccc12 (configuration not stated) [CHLOROQUINE] | 97.8%

Tested on: Plasmodium falciparum
Experiment: Induction of morphological changes in asexual blood stage Plasmodium falciparum assessed as appearance of condensed cytoplasm at 1 uM incubated for 24 hrs by Geimsa-staining based light microscopic analysis
Type: functional, organism-based
Conditions: not given

Compound | Activity
Cc1ccc(-c2nc(C(=O)NCc3cn(-c4ccccc4)nn3)cc3c2[nH]c2ccccc23)cc1 | Active; Irreversible Structural Deformations Observed

Tested on: Plasmodium falciparum
Experiment: Induction of morphological changes in asexual blood stage Plasmodium falciparum assessed as lack of prominent periphery in trophozoites at 1 uM incubated for 24 hrs by Geimsa-staining based light microscopic analysis
Type: functional, organism-based
Conditions: not given

Compound | Activity
Cc1ccc(-c2nc(C(=O)NCc3cn(-c4ccccc4)nn3)cc3c2[nH]c2ccccc23)cc1 | Active; Irreversible Structural Deformations Observed

Tested on: Plasmodium yoelii
Experiment: Antimalarial activity against Plasmodium yoelii N67 infected in female Swiss mouse model assessed as parasite survival at 20 mg/kg, po measured after 7 days relative to control
Type: functional
Conditions: N67, 168 h, time 7 day

Compound | survival at 20 mg/kg
CCN(CC)CCCC(C)Nc1ccnc2cc(Cl)ccc12 (configuration not stated) [CHLOROQUINE] | 60%

Tested on: Plasmodium falciparum
Experiment: Induction of morphological changes in asexual blood stage Plasmodium falciparum assessed as appearance of healthy rings at 1 uM incubated for 48 to 72 hrs by Geimsa-staining based light microscopic analysis
Type: functional, organism-based
Conditions: time 48-72 hrs

Compound | Activity
Cc1ccc(-c2nc(C(=O)NCc3cn(-c4ccccc4)nn3)cc3c2[nH]c2ccccc23)cc1 | inactive

Tested on: Plasmodium yoelii
Experiment: Antimalarial activity against Plasmodium yoelii N67 infected in female Swiss mouse model assessed as mean survival time at 20 mg/kg administered orally
Type: functional
Conditions: route po

Compound | MST
CCN(CC)CCCC(C)Nc1ccnc2cc(Cl)ccc12 (configuration not stated) [CHLOROQUINE] | >28 days

Tested on: Plasmodium falciparum
Experiment: Induction of morphological changes in asexual blood stage Plasmodium falciparum assessed as appearance of compact structure at 1 uM incubated for 24 hrs by Geimsa-staining based light microscopic analysis
Type: functional, organism-based
Conditions: not given

Compound | Activity
Cc1ccc(-c2nc(C(=O)NCc3cn(-c4ccccc4)nn3)cc3c2[nH]c2ccccc23)cc1 | Active; Irreversible Structural Deformations Observed

Reference: ChEMBL document CHEMBL6177959, “Design, synthesis and evaluation of novel carboline-triazole hybrids as promising antimalarial agents” (Eur J Med Chem, 2025)
